ChEMBL document CHEMBL6114984, “Discovery of 2,4-diaminopyrimidine derivatives as potent inhibitors of FAK capable of activating the Hippo pathway for the treatment of esophageal squamous cell carcinoma” (Eur J Med Chem, 2025)

Columns and labels:
[1] = system: MGC-803; assay: cells; conditions: Homo sapiens, MGC-803, 48 h
Description: Antiproliferative activity against human MGC-803 cells assessed as inhibition of cell proliferation incubated for 48 hrs by MTT assay

[2] = system: KYSE-30; assay: cells; conditions: Homo sapiens, KYSE-30, 48 h
Description: Antiproliferative activity against human KYSE-30 cells assessed as inhibition of cell proliferation incubated for 48 hrs by MTT assay

[3] = system: KYSE-450; assay: cells; conditions: Homo sapiens, KYSE-450, 48 h
Description: Antiproliferative activity against human KYSE-450 cells assessed as inhibition of cell proliferation incubated for 48 hrs by MTT assay

[4] = system: Huh-7; assay: cells; conditions: Homo sapiens, Huh-7, 48 h
Description: Antiproliferative activity against human Huh-7 cells assessed as inhibition of cell proliferation incubated for 48 hrs by MTT assay

[5] = system: ECa-109 cell line; assay: cells; conditions: Homo sapiens, ECa-109, 48 h
Description: Antiproliferative activity against human EC109 cells assessed as inhibition of cell proliferation incubated for 48 hrs by MTT assay

[6] = system: NCI-H1975; assay: cells; conditions: Homo sapiens, NCI-H1975, 48 h
Description: Antiproliferative activity against human NCI-H1975 cells assessed as inhibition of cell proliferation incubated for 48 hrs by MTT assay

[7] = system: KYSE-150 cell line; assay: Antiproliferative activity against human KYSE-150 cell line assessed as inhibition of cell proliferation incubated for 48 hrs by MTT assay; format: functional, cell-based; conditions: KYSE-150, 48 h
[8] = system: MDA-MB-231; assay: cells; conditions: Homo sapiens, MDA-MB-231, 48 h
Description: Antiproliferative activity against human MDA-MB-231 cells assessed as inhibition of cell proliferation incubated for 48 hrs by MTT assay

[9] = system: DU-145; assay: cells; conditions: Homo sapiens, DU-145, 48 h
Description: Antiproliferative activity against human DU-145 cells assessed as inhibition of cell proliferation incubated for 48 hrs by MTT assay

[10] = system: NCI-N87; assay: cells; conditions: Homo sapiens, NCI-N87, 48 h
Description: Antiproliferative activity against human NCI-N87 cells assessed as inhibition of cell proliferation incubated for 48 hrs by MTT assay

[11] = system: HCT-116; assay: cells; conditions: Homo sapiens, HCT-116, 48 h
Description: Antiproliferative activity against human HCT-116 cells assessed as inhibition of cell proliferation incubated for 48 hrs by MTT assay

[12] = Metabolic stability in rat liver assessed as intrinsic clearance
[13] = in vitro; conditions: rat, liver microsomes
Description: Metabolic stability in rat liver microsomes assessed as parent compound remaining measured after 5 min

[14] = in vitro; conditions: rat, liver microsomes; remark: listed apart in the source
Description: Metabolic stability in rat liver microsomes assessed as parent compound remaining measured after 60 min

[15] = in vitro; conditions: rat, liver microsomes; remark: listed apart in the source
Description: Metabolic stability in rat liver microsomes assessed as parent compound remaining measured after 30 min

[16] = in vitro; conditions: rat, liver microsomes; remark: listed apart in the source
Description: Metabolic stability in rat liver microsomes assessed as parent compound remaining measured after 15 min

Compound | IC50 [1] [nM] | IC50 [2] [nM] | IC50 [3] [µM] | IC50 [4] [nM] | IC50 [5] [µM] | IC50 [6] [nM] | IC50 [7] [nM] | IC50 [8] [nM] | IC50 [9] [nM] | IC50 [10] [nM] | IC50 [11] [nM] | CLint scaled [12] [mL/min/kg] | remaining at 5 min [13] [%] | remaining at 1 h [14] [%] | remaining at 0.5 h [15] [%] | remaining at 0.25 h [16] [%]
CNC(=O)c1ccccc1Nc1nc(Nc2ccc(N3CCOCC3)cc2OC)ncc1Cl | 1280 | 1030 | 3.44 | 510 | 3.27 | 1820 | 1820 | 2120 | 720 | 2120 | 1520 | – | – | – | – | –
O=C(O)Cc1ccccc1Nc1c(Cl)cccc1Cl [DICLOFENAC] | – | – | – | – | – | – | – | – | – | – | – | 127 | 77.9 | 11.5 | 33.8 | 55.7
